# Starred links: 1 amine or outer side, 2 acyl side, 3 side chain; linkers in the order of their positions; H or OH if unused. Positions of bridges follow the written chain, without caps; N, C: chain ends. Non-standard residues stand in square brackets, D forms with d. Residues, ends and D or L forms follow the SMILES beside them. *: point of attachment. hTyr(3S-OH,4S-OH,3'-OSO3H) = N[C@H](C(=O)O)[C@H](O)[C@@H](O)c1ccc(O)c(OS(=O)(=O)O)c1; Orn(4R-OH,5R-OH) = O=C([C@H](C[C@@H](O)[C@@H](O)N[*:3])N[*:1])[*:2]; Pro(3S-OH,4S-Me) = C[C@H]1CN[C@H](C(=O)O)[C@H]1O; X1 = CCCCCOc1ccc(-c2cc(-c3ccc(C(=O)*)cc3)no2)cc1; Gln(3R-OH) = NC(=O)C[C@@H](O)[C@H](N)C(=O)O; Hyp = O=C(O)[C@@H]1C[C@@H](O)CN1
# Columns and labels:
# [1] = AUC (0 to 24 hrs) in candidiasis patient at 10 mg/kg, iv by HPLC; assay type: ADME, organism-based; set-up: time < 24 hr, dose 10 mg/kg, route intravenous; conditions: human, plasma
# [2] = Volume of distribution in iv dosed adult human by HPLC; assay type: ADME, organism-based; conditions: in vivo
# [3] = test system: Candida albicans; experiment: Antifungal activity against Candida albicans; assay type: functional
# [4] = AUC (0 to 24 hrs) in candidiasis patient at 8 mg/kg, iv by HPLC; assay type: ADME, organism-based; set-up: time < 24 hr, dose 8 mg/kg, route intravenous; conditions: human, plasma
# [5] = Dose normalized clearance in iv dosed adult human by HPLC; assay type: ADME, organism-based; conditions: in vivo
# [6] = AUC (0 to 24 hrs) in candidiasis patient at 12 mg/kg, iv by HPLC; assay type: ADME, organism-based; set-up: time < 24 hr, dose 12 mg/kg, route intravenous; conditions: human, plasma
# [7] = Volume of distribution in iv dosed human infant by HPLC; assay type: ADME, organism-based; conditions: in vivo
# [8] = Ratio of AUC in neonates with Candida albican infection to MIC for Candida albicans; assay type: functional
compound,measurement,setting,value
"CCCCCOc1ccc(-c2cc(-c3ccc(C(=O)N[C@H]4C[C@@H](O)[C@@H](O)NC(=O)[C@@H]5[C@@H](O)[C@@H](C)CN5C(=O)[C@H]([C@H](O)CC(N)=O)NC(=O)[C@H]([C@H](O)[C@@H](O)c5ccc(O)c(OS(=O)(=O)O)c5)NC(=O)[C@@H]5C[C@@H](O)CN5C(=O)[C@H]([C@@H](C)O)NC4=O)cc3)no2)cc1 [MICAFUNGIN] (X1-[Orn(4R-OH,5R-OH)]T[Hyp][hTyr(3S-OH,4S-OH,3'-OSO3H)][Gln(3R-OH)][Pro(3S-OH,4S-Me)]; lactam 1-C)",AUC(0-t) at 24 h,[1],< 166 µg·h/mL
same,Vd,[2],10.4 L
same,MIC,[3],0.125 µg/mL
same,AUC(0-t) at 24 h,[4],< 166 µg·h/mL
same,clearance,[5],19.5 mL/min
same,AUC(0-t) at 24 h,[6],< 166 µg·h/mL
same,Vd,[7],10.3 L
same,Ratio,[8],1330
